# Experimental data published in US9782385B2, “Artificial tears solution combination” (National Health Research Institutes, priority 2015, dated 2017).
# Key:
# [1] = tested on: inflammatory cytokines (IL-1β, IL-6, IL-8, and TNF-α); assay: Gene expression experiment for inflammatory cytokines (Q-PCR) in LPS-induced HCEC; type: cell-based, Human; conditions: LPS 500 ng/ml induced HCEC, 2 hours with test material; compared with the other groups
# Procedure: In this experiment, firstly, cultivate the Human Corneal Epithelial Cells (HCEC) for 48 hours, then utilize Lipopolysaccharide (LPS) at concentration of 500 ng/ml to induce HCEC for 3 hours, to make it to produce inflammatory reaction. Afterwards, add in the compound of EGCG and HA to cultivate with HCEC for 2 hours. The Gene Expression Experiment to evaluate Inflammatory cytokines was conducted for 3 days, and the samples for this experiment were obtained by collecting these cells on the third day. Firstly, utilize Trizol reagent to extract Ribonucleic Acid (RNA) of these cells, and then utilize the High-Capacity cDNA Reverse Transcription Kits made by manufacturer ABi to perform Reverse Transcription […] (RT-PCR), to synthesis the complementary deoxyribonucleic acid (cDNA). Subsequently, utilize the TagManR Fast Universal Master Mix (2X) made by manufacturer ABi, to perform Quantitative Real-Time PCR (Q-PCR) on the inflammatory cytokines (IL-1β, IL-6, IL-8, and TNF-α), to detect the gene expression of the inflammation cytokines (IL-1β, IL-6, IL-8, and TNF-α).
# [2] = tested on: inflammation cytokines (IL-1β, IL-6, IL-8, and TNF-α); assay: Inflammation cytokines protein expression experiment (ELISA of cornea protein); type: in vivo; conditions: rabbit, BAC-induced dry eye, treatment twice a day for 2 weeks
# Excerpt: In this experiment, firstly, a Benzalkonium Chloride (BAC) is dipped onto the eyes of a rabbit 3 times a day for 3 weeks, to induce the rabbit eyes to produce inflammation, and to cause it to have symptoms of moderate dry eye syndrome. Then, utilize various combined compounds of artificial tear solution, HA, and EGCG to proceed with treatments, twice a day for 2 weeks. Then, extract the protein from the rabbit's cornea to perform Enzyme-Linked Immunosorbent Assay (ELISA), to detect the protein expression of the inflammation cytokines (IL-1β, IL-6, IL-8, and TNF-α), and to observe and determine whether the inflammation cytokines were reduced, through treatment of various compounds of artificial tear solution, HA, and EGCG
compound,measurement,setting,value
"O=C(O[C@@H]1Cc2c(O)cc(O)cc2O[C@@H]1c1cc(O)c(O)c(O)c1)c1cc(O)c(O)c(O)c1 [EGCG, Epigallocatechin gallate]","Relative Transcription Ratios of the 4 inflammation factors (IL-1β, IL-6, IL-8, TNF-α)",[1],does have anti-inflammatory effect
same,"concentration of inflammatory cytokines (IL-1β, IL-6, IL-8, and TNF-α) in cornea",[2],has the anti-inflammatory effect
